Columns and labels:
Assay type in all cases: physicochemical
[1] = Study 5: 75 mg/mL Formula (VI) in WFI at various pH under ICH storage temperatures; conditions: for pH change: 75 mg/mL at pH 6
Experimental: It was noticeable from Study 2 that drug stability was dependent on the pH. The lower the pH, the greater the chemical stability. […] An accelerated 60° C. storage temperature was also accessed in order to compare and generate a pH-stability profile of drug in water.
(§1) About 10 g of WFI was placed in the container including a stir bar. […] The pH was measured and the solution was mixed at room temperature for 16-24 hours. At the end of the 16-24 hour hold/mix, the pH of solution was adjusted to pH 4.0 with either HCl or NaOH and mixed for about 15 minutes. The solution was filtered through a PVDF, 0.22 μm filter by discarding about 1 mL prior to placing about 4-5 mL into each of four separate clean containers (A, B, C, D). The pH of the samples was then measured. Solution A was stored at 2-8° C., solution B at 25° C., solution C at 30° C. and solution D at 40° C. A sample was removed from each container after 3, 7 and 14 days the pH measured.
as §1, with “5.0” for “4.0”
as §1, with “6.0” for “4.0”

[2] = Study 3: various strengths of Formula (VI) in WFI at pH 7.0, with and without ascorbic acid
Experimental: Ascorbic acid was also included in this study. […] The samples were tested and evaluated for physicochemical stability under 2-8 and 60° C. storage conditions after 0, 3, 7 and 14 days.
(§2) About 10 g of WFI was placed in the container including a stir bar. […] The pH was measured and the solution was mixed at room temperature for 16-24 hours. At the end of the 16-24 hour hold/mix, the pH of solution was adjusted to pH 7.0 with either HCl or NaOH and mixed for about 15 minutes. The solution was filtered through a PVDF, 0.22 μm filter by discarding about 1 mL prior to placing about 9-10 mL into each of two separate clean containers. The pH of the samples was then measured.
as §2, with “bar. […] About 0.1026 g of Ascorbic Acid was added to the container while mixing.” for “bar.”, “discarding” for “discarding about”
as §2, with “bar. […] About 0.103 g of Ascorbic Acid was added to the container while mixing.” for “bar.”
Following preparation of the solutions, one container of each of solutions 1-6 was stored at 2-8° C. The remaining containers for each of solutions 1-6 were stored at 60° C. From each container, a sample was taken at 0, 3, 7 and 14 days and the pH of the solution was measured.

[3] = Study 4: 75 mg/mL Formula (VI) in WFI at pH 7.0 under ICH storage temperatures; conditions: after 1 month
Experimental: as §1, with “7.0” for “4.0”, “A sample was removed from each container after 3, 7 and 14 days the pH measured.” left out

[4] = 75 mg/mL, 60° C. for 14 days, within pH profile range 4.1-6.5

Substance: [5,10,15,20-tetrakis(1,3-diethylimidazolium-2-yl)porphyrinato]manganese(III) chloride hydrate complex [Formula (VI)]
- pH variation ([1]; 75 mg/mL at pH 4 and 5, all storage conditions, after 14 days): ≤ 0.1 pH unit
- pH decrease ([1]; 75 mg/mL at pH 5, 60° C., after 14 days): ~0.2 pH units
- pH change ([1]; 2-8° C., after 14 days): 0.7 pH units
- pH change ([1]; 25° C., after 14 days): 0.5 pH units
- pH change ([1]; 40° C., after 14 days): −0.1 pH units
- pH change ([1]; 60° C., after 14 days): −0.9 pH units
- change of purity assays ([1]; 75 mg/mL in water, samples at pH between 4.1 and 6.8, after 14 days): No significant changes
- decrease in drug purity assay ([1]; 75 mg/mL, 60° C. for 14 days, increase of pH between 4.1 and 6.5): ~5%
- increase of degradant at RRT 1.56-1.62 [1, 4]: ~8 folds
- level of degradant at RRT 1.56-1.62 [1, 4]: 0.4-3.2%
- decrease of purity assay ([1]; 60° C. samples, between pH 4.1 and 5.2): ~3%
- osmolality ([1]; pH 4 sample, 60° C. storage): 292 mOsm/kg
- osmolality ([1]; pH 4 samples, 2-8, 25 and 40° C., after 14 days): 277-280 mOsm/kg
- osmolality ([1]; pH 5 sample, 60° C. storage): 302 mOsm/kg
- osmolality ([1]; pH 5 samples, 2-8, 25 and 40° C., after 14 days): 273-275 mOsm/kg
- osmolality ([1]; pH 6 sample, 60° C. storage): 283 mOsm/kg
- osmolality ([1]; pH 6 samples, 2-8, 25 and 40° C., after 14 days): 269-272 mOsm/kg
- pH increase ([2]; 100 mg/mL refrigerated sample without ascorbic acid, after 3 day storage): ~1 pH unit
- pH decrease compared to the control sample ([2]; 100 mg/mL sample without ascorbic acid, 60° C., after 14 days): ~2 pH units
- degradation ([2]; 65, 75, 100 mg/mL in water pH 7 containing ascorbic acid, 60° C., after 14 days): 3-5%
- degradation ([2]; 65, 75, 100 mg/mL in water pH 7 without ascorbic acid, 60° C., after 14 days): 3-5%
- pH decrease ([2]; 65 and 75 mg/mL samples without ascorbic acid, 60° C., after 14 days): ~2 pH units
- pH stability ([2]; 65 and 75 mg/mL samples without ascorbic acid, refrigerated condition): relatively stable
- pH increase from initial pH ([2]; all refrigerated samples containing ascorbic acid, after 14 days): ~1.5 pH units
- pH decrease from initial pH ([2]; samples containing ascorbic acid, 60° C., after 3 days): ~2 pH units
- pH rise back ([2]; samples containing ascorbic acid, 60° C., after 14 days): 1-1.5 pH units
- chemical stability ([3]; 75 mg/mL in water pH 7, each storage condition): No significant change
- pH decrease ([3]; 75 mg/mL pH 7, 25° C.): approximately 0.3 pH units
- pH decrease ([3]; 75 mg/mL pH 7, 30° C.): ~0.5 pH units
- pH decrease ([3]; 75 mg/mL pH 7, 40° C.): ~1.1 pH units
- osmolality ([3]; 75 mg/mL pH 7, all samples): 270-276 mOsm/kg
- pH change ([3]; 75 mg/mL pH 7, refrigerated sample): ≤ 0.1 pH unit
